Measurements published in patent US8653074B2, “Substituted sodium 1H-pyrazol-5-olate” (Bayer Intellectual Property GmbH, priority 2010, dated 2014).

Assays:
[1] = Vapour adsorption and vapour desorption (moisture sorption isotherm); format: physicochemical; conditions: customary environmental conditions (20-35° C., atmospheric pressure)
Solubility in water = format: physicochemical; conditions: for solubility thermodynamic at 16 h: thermodynamic from solid, water, 25° C., stirred 16 hours, HPLC
Description: Method: Saturated solutions of the test substance were prepared by stirring a suspension in water at 25° C. for 16 hours. The suspensions obtained were then filtered, and the content in the filtrate was determined by HPLC.

[2] = Vapour adsorption and vapour desorption (moisture sorption isotherm); format: physicochemical; conditions: for Adsorption / Desorption: 25° C.
Description: Vapour Adsorption and Vapour Desorption:
The moisture sorption isotherm was recorded using a Dynamic Vapour Sorption Analyzer IGA Sorp from Hiden Analytical. The measuring temperature was 25° C. There was no sample preparation.

EGLN1/PHD2 = EGLN1/PHD2 (Homo sapiens, UniProt Q9GZT9); experiment: biochemical
Chain of EGLN1/PHD2 (Q9GZT9 whole entry): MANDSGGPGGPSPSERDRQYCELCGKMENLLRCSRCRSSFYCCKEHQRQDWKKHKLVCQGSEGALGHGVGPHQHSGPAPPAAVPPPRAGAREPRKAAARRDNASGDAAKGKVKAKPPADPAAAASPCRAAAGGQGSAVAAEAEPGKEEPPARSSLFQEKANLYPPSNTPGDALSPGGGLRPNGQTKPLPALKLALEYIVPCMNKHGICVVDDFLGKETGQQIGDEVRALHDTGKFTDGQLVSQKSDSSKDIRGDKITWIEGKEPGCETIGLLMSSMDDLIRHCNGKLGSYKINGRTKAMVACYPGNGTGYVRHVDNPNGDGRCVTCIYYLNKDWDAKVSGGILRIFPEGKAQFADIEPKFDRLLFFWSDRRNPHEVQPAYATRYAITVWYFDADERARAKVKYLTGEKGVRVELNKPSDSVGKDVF
Description: Hydroxylated HIF bonds specifically to the von Hippel-Lindau protein-elongin B-elongin C complex (VBC complex). This interaction occurs only if HIF is hydroxylated on a conserved prolyl radical. It is the basis for the biochemical determination of HIF prolyl hydroxylase activity.
A clear 96-well microtiter plate coated with NeutrAvidin HBC (Pierce) is incubated with blocker casein for 30 minutes. The plate is then washed three times with 200 μl each time of wash buffer (50 mM Tris, pH 7.5, 100 mM NaCl, 10% (v/v) blocker casein, 0.05% (v/v) Tween 20) per well. […] This peptide serves as a substrate for the prolyl hydroxylation and is bonded to the microtiter plate. After incubation for 60 minutes, the plate is washed three times with wash buffer, incubated with 1 mM biotin in blocker casein for 30 minutes and then washed again three times with wash buffer. […]
For quantitative determination of the prolyl hydroxylation, a fusion protein which contains both thioredoxin from E. coli and the VBC complex in 80 μl bonding buffer (50 mM Tris, pH 7.5, 120 mM NaCl) is added. […] The amount of bonded VBC complex is determined by measurement of the optical density at 450 nm. […]
Alternatively, a VBC complex coupled to europium (Perkin Elmer) can be used for detection of the prolyl hydroxylation. In this case, the amount of bonded VBC complex is determined by the fluorescence with respect to time.

EGLN2/PHD1 = target: T1, EGLN2/PHD1 (Homo sapiens, UniProt Q96KS0); experiment: Inhibition of the activity of HIF prolyl hydroxylase (VBC complex binding test); format: biochemical; conditions: mean for EGLN2/PHD1
T1 construct: host or cells: cell lysate
T1 sequence (Q96KS0 whole entry): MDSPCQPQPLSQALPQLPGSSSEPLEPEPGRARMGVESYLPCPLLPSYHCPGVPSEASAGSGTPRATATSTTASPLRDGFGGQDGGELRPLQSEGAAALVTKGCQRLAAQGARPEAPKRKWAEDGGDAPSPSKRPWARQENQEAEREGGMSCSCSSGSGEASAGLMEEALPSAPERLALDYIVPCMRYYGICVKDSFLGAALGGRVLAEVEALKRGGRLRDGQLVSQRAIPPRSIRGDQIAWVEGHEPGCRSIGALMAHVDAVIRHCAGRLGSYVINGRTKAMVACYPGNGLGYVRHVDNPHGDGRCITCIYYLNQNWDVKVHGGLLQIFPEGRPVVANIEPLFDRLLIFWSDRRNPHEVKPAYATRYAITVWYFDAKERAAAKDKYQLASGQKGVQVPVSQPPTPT
Description: The test is carried out as described [Oehme F., Jonghaus W., Narouz-Ott L., Huetter J., Flamme I., Anal. Biochem. 330 (1), 74-80 (2004)]:
A clear 96-well microtiter plate coated with NeutrAvidin HBC (Pierce) is incubated with blocker casein for 30 minutes. The plate is then washed three times with 200 μl each time of wash buffer (50 mM Tris, pH 7.5, 100 mM NaCl, 10% (v/v) blocker casein, 0.05% (v/v) Tween 20) per well. The peptide biotin-[sequence] (Eurogentec, 4102 Seraing, Belgium) is added in a concentration of 400 nM in 100 μl wash buffer. This peptide serves as a substrate for the prolyl hydroxylation and is bonded to the microtiter plate. After incubation for 60 minutes, the plate is washed three times with wash buffer, incubated with 1 mM biotin in blocker casein for 30 minutes and then washed again three times with wash buffer.
To carry out the prolyl hydroxylase reaction, the peptide substrate bonded to the plate is incubated with a cell lysate containing prolyl hydroxylase for 1 to 60 minutes. […]

[3] = system: recombinant A549 cell line with luciferase reporter under hypoxia-responsible elements; experiment: Cellular, functional in vitro test (luciferase reporter under hypoxia-responsible elements); format: cell-based; conditions: Homo sapiens
Text: 1.b) Cellular, Functional in vitro Test:
The activity of the compounds according to the invention is quantified with the aid of a recombinant cell line. The cell is originally derived from a human lung carcinoma cell line (A549, ATCC: American Type Culture Collection, Manassas, Va. 20108, USA). The test cell line is transfected in a stable manner with a vector which contains the reporter gene of Photinus pyralis luciferase (called luciferase in the following) under the control of an artificial minimal promoter. […] Under the effect of hypoxia (e.g. culturing in the presence of 1% oxygen for 24 hours) or under the action of non-selective dioxygenase inhibitors (e.g. desferroxamine in a concentration of 100 μM, cobalt chloride in a concentration of 100 μM or N-oxalylglycine diethyl ester in a concentration of 1 mM), the test cell line produces luciferase, which can be detected and quantified with the aid of suitable bioluminescence reagents (e.g. Steady-Glo® Luciferase Assay System, Promega Corporation, Madison, Wis. 53711, USA) and a suitable luminometer.
On the day before the test, the cells are plated out in an exactly calculated amount of culture medium (DMEM, 10% FCS, 2 mM glutamine) in 384- or 1,536-well microtiter plates and kept in a cell incubator (96% atmospheric humidity, 5% v/v CO2, 37° C.). […]

| Compound | hygroscopicity [1] | solubility thermodynamic at 16 h (Solubility in water) | Adsorption ([2]; 0% rh) | Adsorption ([2]; 10% rh) | Desorption ([2]; 10% rh) | Adsorption ([2]; 20% rh) | Desorption ([2]; 20% rh) | Adsorption ([2]; 30% rh) | Desorption ([2]; 30% rh) | Adsorption ([2]; 40% rh) | Desorption ([2]; 40% rh) | Adsorption ([2]; 50% rh) | Desorption ([2]; 50% rh) | Adsorption ([2]; 60% rh) | Desorption ([2]; 60% rh) | Adsorption ([2]; 70% rh) | Desorption ([2]; 70% rh) | Adsorption ([2]; 80% rh) | Desorption ([2]; 80% rh) | Adsorption ([2]; 90% rh) | further results |
| --- | --- | --- | --- | --- | --- | --- | --- | --- | --- | --- | --- | --- | --- | --- | --- | --- | --- | --- | --- | --- | --- |
| Oc1c(-n2ccnn2)cnn1-c1cc(N2CCOCC2)ncn1 [Compound of the formula (I), 1-[6-(morpholin-4-yl)pyrimidin-4-yl]-4-(1H-1,2,3-triazol-1-yl)-1H-pyrazol-5-ol, reference compound] | hygroscopic | 0.143 mg/mL | 0.1% | 0.2% | 0.1% | 0.3% | 0.2% | 4.8% | 4.7% | 5.1% | 5.2% | 5.3% | 5.4% | 5.4% | 5.6% | 5.6% | 5.6% | 5.7% | 5.7% | 5.9% | Desorption ([2]; 5% rh (printed in the 0% rh line)): 0.1% (5% rh); uptake of water ([2]; 20-35° C., atmospheric pressure, relative atmospheric humidity above 20% rh): up to 6 % by weight; Desorption ([2]; 90% rh): 5.9% |
| [Na+].[O-]c1c(-n2ccnn2)cnn1-c1cc(N2CCOCC2)ncn1 [Compound of the formula (II), sodium 1-[6-(morpholin-4-yl)pyrimidin-4-yl]-4-(1H-1,2,3-triazol-1-yl)-1H-pyrazol-5-olate] | not hygroscopic | 28 mg/mL | 0% | 0% | 0% | 0.1% | 0% | 0.1% | 0.1% | 0.2% | 0.2% | 0.2% | 0.3% | 0.2% | 0.3% | 0.4% | 0.4% | 0.4% | 0.5% | 0.8% | solubility in water compared to the compound of the formula (I) (Solubility in water): higher solubility in water; IC50 (EGLN1/PHD2): 140 nM; IC50 (EGLN2/PHD1): 470 nM; EC50 [3]: 7 nM; water content [2]: less than 0.5 % by weight; Desorption ([2]; 0% rh): 0%; change of water content ([2]; 20-35° C., atmospheric pressure, atmospheric humidity of up to 90% rh): less than 0.5 % by weight; Desorption ([2]; 90% rh): 0.8% |
